IC50 data for 22 molecules are collected here from patent US9663508B2, “Biaryl acyl-sulfonamide compounds as sodium channel inhibitors” (AMGEN INC., priority 2013, dated 2017).

Like-named read-outs stand apart in the source and are kept apart here. Some results are limits rather than exact numbers.

One data set addresses human Nav 1.5 (Homo sapiens (Human), UniProt Q14524). The data set can be described thus: Nav 1.5 IonWorks Quattro (IWQ) in vitro assay. The data set is classed as cell-based.
The target of the next data set is human Nav1.7 (Homo sapiens (Human), UniProt Q15858). Put plainly: Nav 1.7 in vitro PatchXpress (PX) assay. The data set is classed as cell-based.
[1] abbreviates: in-vitro Nav 1.5 IWQ data, read-out: NAV 1.5 IWQ (IC50).

human Nav1.7, sequence (Q15858 whole entry): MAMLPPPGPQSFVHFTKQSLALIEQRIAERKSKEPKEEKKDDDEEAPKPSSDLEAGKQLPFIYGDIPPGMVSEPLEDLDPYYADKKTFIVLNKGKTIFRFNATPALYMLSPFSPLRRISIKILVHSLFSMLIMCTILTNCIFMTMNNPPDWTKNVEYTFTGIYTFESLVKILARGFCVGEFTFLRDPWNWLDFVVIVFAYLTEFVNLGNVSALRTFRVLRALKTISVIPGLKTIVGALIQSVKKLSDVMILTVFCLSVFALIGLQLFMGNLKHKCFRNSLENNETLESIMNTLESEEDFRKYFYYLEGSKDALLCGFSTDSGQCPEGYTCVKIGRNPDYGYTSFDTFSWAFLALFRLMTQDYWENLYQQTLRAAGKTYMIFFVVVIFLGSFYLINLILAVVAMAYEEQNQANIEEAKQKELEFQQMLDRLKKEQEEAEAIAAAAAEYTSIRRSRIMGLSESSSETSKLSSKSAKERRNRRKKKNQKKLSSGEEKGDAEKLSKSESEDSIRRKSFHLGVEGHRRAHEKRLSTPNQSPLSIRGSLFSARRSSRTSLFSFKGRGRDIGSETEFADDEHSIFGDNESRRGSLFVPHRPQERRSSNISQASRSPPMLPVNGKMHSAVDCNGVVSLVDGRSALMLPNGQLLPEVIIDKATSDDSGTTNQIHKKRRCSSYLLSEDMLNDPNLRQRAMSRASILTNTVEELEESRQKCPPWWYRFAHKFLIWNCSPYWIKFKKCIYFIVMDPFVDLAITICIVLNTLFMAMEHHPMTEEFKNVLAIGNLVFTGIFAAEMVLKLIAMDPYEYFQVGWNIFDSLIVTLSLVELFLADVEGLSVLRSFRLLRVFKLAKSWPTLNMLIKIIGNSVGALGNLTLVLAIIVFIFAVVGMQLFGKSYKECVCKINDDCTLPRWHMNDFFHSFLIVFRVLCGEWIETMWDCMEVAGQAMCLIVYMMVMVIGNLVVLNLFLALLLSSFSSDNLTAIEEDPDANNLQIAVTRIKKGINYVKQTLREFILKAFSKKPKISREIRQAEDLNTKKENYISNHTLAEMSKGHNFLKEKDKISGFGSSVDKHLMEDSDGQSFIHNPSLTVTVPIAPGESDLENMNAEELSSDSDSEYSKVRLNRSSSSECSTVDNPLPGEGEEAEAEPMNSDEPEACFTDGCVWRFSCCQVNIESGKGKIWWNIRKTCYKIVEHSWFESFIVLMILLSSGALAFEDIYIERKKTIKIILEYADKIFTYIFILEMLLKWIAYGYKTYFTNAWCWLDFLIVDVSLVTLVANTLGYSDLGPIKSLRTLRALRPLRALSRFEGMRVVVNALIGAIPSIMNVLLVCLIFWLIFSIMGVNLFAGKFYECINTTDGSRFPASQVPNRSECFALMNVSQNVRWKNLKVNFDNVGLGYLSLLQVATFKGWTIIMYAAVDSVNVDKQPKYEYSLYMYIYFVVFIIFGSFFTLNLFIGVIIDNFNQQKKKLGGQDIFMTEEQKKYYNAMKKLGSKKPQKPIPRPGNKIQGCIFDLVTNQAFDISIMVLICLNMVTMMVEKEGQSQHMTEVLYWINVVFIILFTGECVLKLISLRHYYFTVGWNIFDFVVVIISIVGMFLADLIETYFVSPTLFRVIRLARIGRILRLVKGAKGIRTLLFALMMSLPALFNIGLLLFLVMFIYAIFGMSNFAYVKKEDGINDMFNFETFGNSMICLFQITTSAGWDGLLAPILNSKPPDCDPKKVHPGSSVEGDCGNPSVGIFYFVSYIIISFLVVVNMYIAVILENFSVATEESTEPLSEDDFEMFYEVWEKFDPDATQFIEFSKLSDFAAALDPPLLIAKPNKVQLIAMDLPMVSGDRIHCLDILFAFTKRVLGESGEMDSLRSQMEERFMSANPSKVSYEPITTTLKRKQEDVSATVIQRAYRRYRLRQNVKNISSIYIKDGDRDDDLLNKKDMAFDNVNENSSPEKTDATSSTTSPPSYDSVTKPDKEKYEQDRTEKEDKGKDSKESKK
human Nav 1.5, sequence (Q14524 whole entry): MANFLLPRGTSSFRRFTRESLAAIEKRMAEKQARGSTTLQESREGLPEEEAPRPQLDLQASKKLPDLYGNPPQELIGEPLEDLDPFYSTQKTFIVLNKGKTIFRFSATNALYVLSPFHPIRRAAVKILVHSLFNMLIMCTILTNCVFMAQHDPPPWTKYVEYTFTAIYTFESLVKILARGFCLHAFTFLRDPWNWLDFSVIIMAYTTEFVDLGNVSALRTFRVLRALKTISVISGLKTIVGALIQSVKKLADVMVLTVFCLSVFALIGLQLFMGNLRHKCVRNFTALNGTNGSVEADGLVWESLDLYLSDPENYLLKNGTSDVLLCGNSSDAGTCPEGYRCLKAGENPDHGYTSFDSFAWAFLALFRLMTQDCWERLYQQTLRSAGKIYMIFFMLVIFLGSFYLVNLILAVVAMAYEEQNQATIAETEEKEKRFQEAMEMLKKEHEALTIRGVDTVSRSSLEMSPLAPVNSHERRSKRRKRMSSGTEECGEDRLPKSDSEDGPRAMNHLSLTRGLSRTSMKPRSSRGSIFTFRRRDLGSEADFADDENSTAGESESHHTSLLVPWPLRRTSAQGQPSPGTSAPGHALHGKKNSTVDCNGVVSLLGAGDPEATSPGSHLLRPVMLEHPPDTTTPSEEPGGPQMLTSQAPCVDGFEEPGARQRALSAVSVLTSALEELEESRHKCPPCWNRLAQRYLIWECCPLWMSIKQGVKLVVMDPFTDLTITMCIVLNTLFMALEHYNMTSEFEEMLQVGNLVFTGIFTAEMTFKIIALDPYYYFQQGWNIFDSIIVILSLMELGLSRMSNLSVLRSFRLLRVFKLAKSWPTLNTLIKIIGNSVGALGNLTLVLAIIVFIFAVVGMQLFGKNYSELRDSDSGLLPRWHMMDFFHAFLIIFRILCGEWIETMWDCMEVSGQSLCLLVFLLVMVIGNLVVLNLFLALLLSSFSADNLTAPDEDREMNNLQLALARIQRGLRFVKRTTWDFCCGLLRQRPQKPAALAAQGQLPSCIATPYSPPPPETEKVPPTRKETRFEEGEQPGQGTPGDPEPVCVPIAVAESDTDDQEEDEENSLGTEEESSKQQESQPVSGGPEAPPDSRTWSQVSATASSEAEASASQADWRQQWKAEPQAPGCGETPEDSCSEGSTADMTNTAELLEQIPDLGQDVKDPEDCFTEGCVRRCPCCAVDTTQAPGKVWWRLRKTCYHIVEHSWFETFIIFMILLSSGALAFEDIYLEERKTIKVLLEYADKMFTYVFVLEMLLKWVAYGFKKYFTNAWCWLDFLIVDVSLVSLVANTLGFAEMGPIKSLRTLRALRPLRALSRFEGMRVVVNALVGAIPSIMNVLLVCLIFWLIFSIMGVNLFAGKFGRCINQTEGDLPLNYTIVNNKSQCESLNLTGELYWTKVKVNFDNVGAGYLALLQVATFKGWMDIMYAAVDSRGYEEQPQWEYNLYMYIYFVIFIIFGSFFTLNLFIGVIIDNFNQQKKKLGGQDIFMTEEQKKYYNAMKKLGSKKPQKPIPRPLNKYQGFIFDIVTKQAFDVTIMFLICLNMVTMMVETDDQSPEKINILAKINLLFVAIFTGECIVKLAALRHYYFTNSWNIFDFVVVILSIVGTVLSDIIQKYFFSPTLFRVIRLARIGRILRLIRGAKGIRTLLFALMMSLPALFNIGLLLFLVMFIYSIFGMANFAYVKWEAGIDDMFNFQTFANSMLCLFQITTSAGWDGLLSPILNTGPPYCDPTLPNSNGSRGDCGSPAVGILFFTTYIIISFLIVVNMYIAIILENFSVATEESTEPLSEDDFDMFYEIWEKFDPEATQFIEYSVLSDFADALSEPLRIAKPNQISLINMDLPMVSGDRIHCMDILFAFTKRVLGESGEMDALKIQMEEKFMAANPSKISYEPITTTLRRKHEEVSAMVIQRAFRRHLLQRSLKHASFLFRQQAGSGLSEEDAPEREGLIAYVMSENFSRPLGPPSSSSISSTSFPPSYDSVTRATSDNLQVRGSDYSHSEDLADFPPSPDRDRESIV

As to `Cc1cc(C(=O)NS(C)(=O)=O)c(F)cc1-c1cnc(Oc2cc(F)cc(F)c2F)c(Cl)c1` [Example 629, 4-(5-chloro-6-(2,3,5-trifluorophenoxy)-3-pyridinyl)-2-fluoro-5-methyl-N-(methylsulfonyl)benzamide], the values for the IC50 on human Nav 1.5 (read-out: NAV 1.5 IWQ IC50) and on human Nav1.7 were greater than 3000 nM and 57.8 nM, respectively.
Take `Cc1cc(C(=O)NS(C)(=O)=O)c(F)cc1-c1cnc(O[C@@H](C)c2nc3ccccc3s2)c(Cl)c1` [Example 710, 4-(6-((1S)-1-(1,3-benzothiazol-2-yl)ethoxy)-5-chloro-3-pyridinyl)-2-fluoro-5-methyl-N-(methylsulfonyl)benzamide]: the results for the IC50 at human Nav 1.5 (setting [1]) and against human Nav1.7 (in-vitro Nav 1.7 PX data) were greater than 3000 nM and 87.3 nM, respectively.
In the case of `Cc1cc(C(=O)NS(C)(=O)=O)c(F)cc1-c1cnc(O[C@H](C)c2nc3ccccc3s2)c(Cl)c1` [Example 647, 4-(6-((1R)-1-(1,3-benzothiazol-2-yl)ethoxy)-5-chloro-3-pyridinyl)-2-fluoro-5-methyl-N-(methylsulfonyl)benzamide, 4-(6-((1S)-1-(1,3-benzothiazol-2-yl)ethoxy)-5-chloro-3-pyridinyl)-2-fluoro-5-methyl-N-(methylsulfonyl)benzamide], the figures for the IC50 at human Nav 1.5 (read-out: NAV 1.5 IWQ IC50) and against human Nav1.7 were greater than 3000 nM and 76 nM, respectively.
For `Cc1ccc(Oc2ncc(-c3cc(F)c(C(=O)NS(C)(=O)=O)cc3C)cc2Cl)c(C(C)(C)C)c1` [Example 634, 4-(6-(2-tert-butyl-4-methylphenoxy)-5-chloro-3-pyridinyl)-2-fluoro-5-methyl-N-(methylsulfonyl)benzamide], in that order: greater than 3000 nM and 94.8 nM.
On to `COc1cc(C(=O)NS(C)(=O)=O)ccc1-c1cc(Cl)nc(Oc2cc(Cl)cc(Cl)c2)c1` [Example 803, 4-(2-chloro-6-(3,5-dichlorophenoxy)-4-pyridinyl)-3-methoxy-N-(methylsulfonyl)benzamide], for which the IC50 (as a rule, the point on the concentration scale where inhibition reaches its midpoint) was greater than 3000 nM on human Nav 1.5 (setting [1]) and 91.6 nM against human Nav1.7 (in-vitro Nav 1.7 PX data).
For the molecule `Cc1cc(C(=O)NS(C)(=O)=O)c(F)cc1-c1cnc(Oc2ccc(Cl)cc2Cl)c(Cl)c1` [Example 665, 4-(5-chloro-6-(2,4-dichlorophenoxy)-3-pyridinyl)-2-fluoro-5-methyl-N-(methylsulfonyl)benzamide], the IC50 stood at 4680 nM on human Nav 1.5 (read-out: NAV 1.5 IWQ IC50) and 35.7 nM against human Nav1.7.
As to `COc1cc(C(=O)NS(C)(=O)=O)ccc1-c1cnc(Oc2cc(Cl)cc(Cl)c2)c(Cl)c1` [Example 348, 4-(5-chloro-6-(3,5-dichlorophenoxy)-3-pyridinyl)-3-methoxy-N-(methylsulfonyl)benzamide], the half-maximal inhibitory concentration (IC50) at human Nav 1.5 (read-out: NAV 1.5 IWQ IC50) was found to be 5740 nM; against human Nav1.7, 34.5 nM.
`Cc1cc(C(=O)NS(C)(=O)=O)c(F)cc1-c1cnc(Oc2ccc(Cl)c(Cl)c2)c(Cl)c1` [Example 664, 4-(5-chloro-6-(3,4-dichlorophenoxy)-3-pyridinyl)-2-fluoro-5-methyl-N-(methylsulfonyl)benzamide]: the IC50 at human Nav 1.5 (read-out: NAV 1.5 IWQ IC50) was greater than 10000 nM; at human Nav1.7, 80.6 nM.
In the case of `Cc1cc(Cl)c(Oc2ncc(-c3cc(F)c(C(=O)NS(C)(=O)=O)cc3C)cc2Cl)cc1C` [Example 632, 4-(5-chloro-6-(2-chloro-4,5-dimethylphenoxy)-3-pyridinyl)-2-fluoro-5-methyl-N-(methylsulfonyl)benzamide], the values for the IC50 at human Nav 1.5 (read-out: NAV 1.5 IWQ IC50) and against human Nav1.7 were greater than 3000 nM and 81.5 nM, respectively.
For `CS(=O)(=O)NC(=O)c1cc(Cl)c(-c2cnc(Oc3ccc(F)c(F)c3F)c(Cl)c2)cc1F` [Example 588, 5-chloro-4-(5-chloro-6-(2,3,4-trifluorophenoxy)-3-pyridinyl)-2-fluoro-N-(methylsulfonyl)benzamide], in that order: greater than 3000 nM and 82.3 nM.
In the same order, the values of `Cc1cc(C(=O)NS(C)(=O)=O)c(F)cc1-c1cnc(O[C@H](C)c2ccc(F)cc2Cl)c(Cl)c1` [Example 652, 4-(5-chloro-6-((1R)-1-(2-chloro-4-fluorophenyl)ethoxy)-3-pyridinyl)-2-fluoro-5-methyl-N-(methylsulfonyl)benzamide, 4-(5-chloro-6-((1S)-1-(2-chloro-4-fluorophenyl)ethoxy)-3-pyridinyl)-2-fluoro-5-methyl-N-(methylsulfonyl)benzamide] are greater than 3000 nM and 66.4 nM.
For `CC[C@@H](Oc1ncc(-c2cc(F)c(C(=O)NS(C)(=O)=O)cc2C)cc1Cl)c1ccc(F)c(C)c1` [Example 675, 4-(5-chloro-6-(((1R)-1-(4-fluoro-3-methylphenyl)propyl)oxy)-3-pyridinyl)-2-fluoro-5-methyl-N-(methylsulfonyl)benzamide], in that order: greater than 10000 nM and 54 nM.
Take `COc1cc(C(=O)NS(C)(=O)=O)c(F)cc1-c1cnc(Oc2cc(F)cc(F)c2F)c(Cl)c1` [Example 700, 4-(5-chloro-6-(2,3,5-trifluorophenoxy)-3-pyridinyl)-2-fluoro-5-methoxy-N-(methylsulfonyl)benzamide]: the IC50 at human Nav 1.5 (read-out: NAV 1.5 IWQ IC50) is greater than 3000 nM; on human Nav1.7, 91.3 nM.
In the same order, the values of `CC[C@H](Oc1ncc(-c2cc(F)c(C(=O)NS(C)(=O)=O)cc2C)cc1Cl)c1ccc(F)cc1` [Example 651, 4-(5-chloro-6-(((1S)-1-(4-fluorophenyl)propyl)oxy)-3-pyridinyl)-2-fluoro-5-methyl-N-(methylsulfonyl)benzamide] are greater than 3000 nM and 73.5 nM.
In the same order, the values of `CS(=O)(=O)NC(=O)c1cc(Cl)c(-c2cnc(Oc3cc(F)cc(F)c3F)c(Cl)c2)cc1F` [Example 589, 5-chloro-4-(5-chloro-6-(2,3,5-trifluorophenoxy)-3-pyridinyl)-2-fluoro-N-(methylsulfonyl)benzamide] are greater than 3000 nM and 49.9 nM.
As for `C[C@@](Oc1ncc(-c2cc(F)c(C(=O)NS(C)(=O)=O)cc2F)cc1Cl)(c1ccccc1)C(F)(F)F` [Example 566, 4-(5-chloro-6-((1R)-2,2,2-trifluoro-1-methyl-1-phenylethoxy)-3-pyridinyl)-2,5-difluoro-N-(methylsulfonyl)benzamide, 4-(5-chloro-6-((1S)-2,2,2-trifluoro-1-methyl-1-phenylethoxy)-3-pyridinyl)-2,5-difluoro-N-(methylsulfonyl)benzamide], the IC50 was greater than 3000 nM at human Nav 1.5 (read-out: NAV 1.5 IWQ IC50) and 73.1 nM against human Nav1.7.
For `CCOc1ccc(Oc2ncc(-c3cc(F)c(C(=O)NS(C)(=O)=O)cc3C)cc2Cl)cc1F` [Example 645, 4-(5-chloro-6-(4-ethoxy-3-fluorophenoxy)-3-pyridinyl)-2-fluoro-5-methyl-N-(methylsulfonyl)benzamide], in that order: greater than 3000 nM and 97.3 nM.
Consider `Cc1cc(C(=O)NS(C)(=O)=O)c(F)cc1-c1cnc(Oc2cc(F)c(Br)cc2Cl)c(Cl)c1` [Example 606, 4-(6-(4-bromo-2-chloro-5-fluorophenoxy)-5-chloro-3-pyridinyl)-2-fluoro-5-methyl-N-(methylsulfonyl)benzamide], for which the IC50 was greater than 3000 nM on human Nav 1.5 (read-out: NAV 1.5 IWQ IC50) and 71.7 nM at human Nav1.7.
As for `Cc1cc(C(=O)NS(C)(=O)=O)c(F)cc1-c1cnc(Oc2cccc(Cl)c2F)c(Cl)c1` [Example 619, 4-(5-chloro-6-(3-chloro-2-fluorophenoxy)-3-pyridinyl)-2-fluoro-5-methyl-N-(methylsulfonyl)benzamide], the IC50 on human Nav 1.5 (read-out: NAV 1.5 IWQ IC50) is greater than 3000 nM; at human Nav1.7, 93.7 nM.
In the same order, the values of `CC[C@@H](Oc1ncc(-c2cc(F)c(C(=O)NS(C)(=O)=O)cc2C)cc1Cl)c1ccc(F)cc1` [Example 650, 4-(5-chloro-6-(((1R)-1-(4-fluorophenyl)propyl)oxy)-3-pyridinyl)-2-fluoro-5-methyl-N-(methylsulfonyl)benzamide] are greater than 3000 nM and 78.7 nM.
In the same order, the values of `Cc1cc(C(=O)NS(C)(=O)=O)c(F)cc1-c1cnc(Oc2ccc(F)c3c2CCC3)c(Cl)c1` [Example 672, 4-(5-chloro-6-((7-fluoro-2,3-dihydro-1H-inden-4-yl)oxy)-3-pyridinyl)-2-fluoro-5-methyl-N-(methylsulfonyl)benzamide] are greater than 10000 nM and 67.5 nM.
For `Cc1cc(Cl)cc(Cl)c1Oc1ncc(-c2cc(F)c(C(=O)NS(C)(=O)=O)cc2F)cc1Br` [Example 575, 4-(5-bromo-6-(2,4-dichloro-6-methylphenoxy)-3-pyridinyl)-2,5-difluoro-N-(methylsulfonyl)benzamide], in that order: greater than 4900 nM and 42.4 nM.
